Earlier results, collected in patent publication US9609876B2, “Antimicrobial compositions” (priority 2012, dated 2017).

How the values were obtained:
[1] = in vivo

pH range in which it is stable and maintains its antimicrobial activity | Structure (SMILES) | LD50 [1] [mg/kg]
 | CC(=O)CCC(=O)O [Levulinic acid] | 1850
3-7 | CCCCCCCCCCCC(=O)N[C@@H](CCCNC(=N)N)C(=O)OCC.Cl [LAE, N^α-lauroyl-L-arginine ethyl ester monohydrochloride] | 
